Data on two molecules can be found in patent US20030157583A1, “Methods for determining squalene synthase activity” (priority 2001, published 2003).

Data set [1] deals with T1, truncated squalene synthase (tSqS) (Arabidopsis thaliana, UniProt P53799).
T1 sequence (P53799 1-388 limits assumed): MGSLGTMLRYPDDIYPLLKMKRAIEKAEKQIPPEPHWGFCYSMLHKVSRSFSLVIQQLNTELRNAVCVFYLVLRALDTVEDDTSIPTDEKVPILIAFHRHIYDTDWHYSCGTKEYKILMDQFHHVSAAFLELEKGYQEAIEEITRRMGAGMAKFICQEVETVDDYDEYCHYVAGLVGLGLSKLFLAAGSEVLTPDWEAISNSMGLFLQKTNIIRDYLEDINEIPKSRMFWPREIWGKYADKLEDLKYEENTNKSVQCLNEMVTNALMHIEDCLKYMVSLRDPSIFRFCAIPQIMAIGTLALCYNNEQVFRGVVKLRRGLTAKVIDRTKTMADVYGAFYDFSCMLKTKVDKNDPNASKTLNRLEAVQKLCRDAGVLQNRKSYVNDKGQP
The experiment in a line: biochemical. The source says:
The conversion of the intermediate PSPP into squalene requires magnesium as a cofactor.

Substrate in data set [2]: CC(C)=CCC/C(C)=C/CC/C(C)=C/CO[P@@](=O)(O)OP(=O)(O)O
The data set can be described thus: purified protein, by the assay type. The note with it: other: initial velocity vs FPP concentration, 50 ng tSqS, 100 μM NADPH, 10 mM MgCl2, 37° C., pH 7.5.

In data set [1], `O=C(O)CN(CCN(CC(=O)O)CC(=O)O)CC(=O)O` [EDTA] returned an IC50 of around 8 mM.

B1: truncated squalene synthase (tSqS) (Arabidopsis thaliana) (protein)
chain: MGSLGTMLRYPDDIYPLLKMKRAIEKAEKQIPPEPHWGFCYSMLHKVSRSFSLVIQQLNTELRNAVCVFYLVLRALDTVEDDTSIPTDEKVPILIAFHRHIYDTDWHYSCGTKEYKILMDQFHHVSAAFLELEKGYQEAIEEITRRMGAGMAKFICQEVETVDDYDEYCHYVAGLVGLGLSKLFLAAGSEVLTPDWEAISNSMGLFLQKTNIIRDYLEDINEIPKSRMFWPREIWGKYADKLEDLKYEENTNKSVQCLNEMVTNALMHIEDCLKYMVSLRDPSIFRFCAIPQIMAIGTLALCYNNEQVFRGVVKLRRGLTAKVIDRTKTMADVYGAFYDFSCMLKTKVDKNDPNASKTLNRLEAVQKLCRDAGVLQNRKSYVNDKGQP
With B1, the Km in data set [2] was found to be 42 µM.

What is called IC50 is the concentration that gives 50% inhibition. Read a low IC50 as higher potency. One may read the Km as the concentration of substrate that gives half-maximal velocity.
